Results taken from patent publication US20250042857A1, “SOS1 Inhibitor With Pyrido-Fused Six-Membered Ring Structure” (HAIHE BIOPHARMA CO., LTD., priority 2021, published 2025).

Each molecule was assayed against KRAS-G12C/SOS1 (Homo sapiens (Human), UniProt Q07889) (assay: Detection of inhibitory effects of compounds on KRAS-G12C/SOS1 (KRASG12C/SOS binding kit, HTRF)). Conditions: Em665/620, read-out: IC50, inhibitory activity on interaction of KRAS-G12C/SOS1.
From the text: Experimental objective: The inhibitory effects of the tested compounds on KRAS-G12C/SOS1 were detected. IC50 was used to characterize the inhibitory ability of the compounds on the KRAS-G12C/SOS1. The lower IC50 value indicated the stronger inhibitory ability. BI-3406 was used as a positive control compound.
Experimental reagents: KRASG12C/SOS binding kit (Cisbio, cat. 63ADK000CB16PEG); DMSO (Sigma, cat. D8418-1L); and 384-well white plate (PerkinElmer, cat. 6007290)
• 1. Preparation of compounds: the test compounds were dissolved in 100% DMSO to obtain 10 mM stock solutions and the stock solutions were stored in a refrigerator in the dark. • 2. Kinase reaction process:
Preparation of compounds: the test compounds had the concentration of 5,000 nM and diluted in a 384-well plate into a 100% DMSO solution at the 200-fold final concentration, and the compounds were diluted 3-fold with 10 concentrations. 50 nL of the compounds at the 200-fold final concentration were transferred to the plate of interest, the 384-well plate, using a dispenser Echo 550. 50 nL of 100% DMSO was added to each negative control well and positive control well.
A Tag1-SOS1 solution at the 4-fold final concentration was prepared using a diluent buffer.
2.5 μL of the Tag1-SOS1 solution at the 4-fold final concentration was added to the 384-well plate.
A Tag2-KRAS-G12C solution at the 4-fold final concentration was prepared using the diluent buffer.
2.5 μL of the Tag2-KRAS-G12C solution at the 4-fold final concentration was respectively added into compound wells and the positive control wells; and 2.5 μL of the diluent buffer was added to the negative control wells.
The 384-well plate was centrifuged at 1,000 rpm for 30 seconds, shaken and mixed uniformly, and incubated at room temperature for 15 minutes.
An Anti-Tag1-TB3+ solution at the 1-fold final concentration and an Anti-Tag2-XL665 solution at the 1-fold final concentration were prepared using a detection buffer, the two solutions were mixed uniformly to obtain a Mix solution, and 5 μL of the Mix solution was added into each well.
The 384-well plate was centrifuged at 1,000 rpm for 30 seconds, shaken and mixed uniformly, and incubated at 4° C. for 120 minutes.
Em665/620 was read using an Envision microplate reader.
Inhibition %=(Max signal−Compound signal)/(Max signal−Min signal)×100 Calculation formula • wherein the Min signal was the mean value of the negative control wells, and the Max signal was the mean value of the positive control wells.
A dose-response curve was fitted using the log value of the concentration as an X axis and the percentage of the inhibitory rate as a Y axis by using the log(inhibitor) vs. response-variable slope of an analytical software GraphPadPrism5, thereby obtaining the IC50 value of each compound on an enzyme activity.

KRAS-G12C/SOS1, sequence (Q07889 whole entry, stated change not applied): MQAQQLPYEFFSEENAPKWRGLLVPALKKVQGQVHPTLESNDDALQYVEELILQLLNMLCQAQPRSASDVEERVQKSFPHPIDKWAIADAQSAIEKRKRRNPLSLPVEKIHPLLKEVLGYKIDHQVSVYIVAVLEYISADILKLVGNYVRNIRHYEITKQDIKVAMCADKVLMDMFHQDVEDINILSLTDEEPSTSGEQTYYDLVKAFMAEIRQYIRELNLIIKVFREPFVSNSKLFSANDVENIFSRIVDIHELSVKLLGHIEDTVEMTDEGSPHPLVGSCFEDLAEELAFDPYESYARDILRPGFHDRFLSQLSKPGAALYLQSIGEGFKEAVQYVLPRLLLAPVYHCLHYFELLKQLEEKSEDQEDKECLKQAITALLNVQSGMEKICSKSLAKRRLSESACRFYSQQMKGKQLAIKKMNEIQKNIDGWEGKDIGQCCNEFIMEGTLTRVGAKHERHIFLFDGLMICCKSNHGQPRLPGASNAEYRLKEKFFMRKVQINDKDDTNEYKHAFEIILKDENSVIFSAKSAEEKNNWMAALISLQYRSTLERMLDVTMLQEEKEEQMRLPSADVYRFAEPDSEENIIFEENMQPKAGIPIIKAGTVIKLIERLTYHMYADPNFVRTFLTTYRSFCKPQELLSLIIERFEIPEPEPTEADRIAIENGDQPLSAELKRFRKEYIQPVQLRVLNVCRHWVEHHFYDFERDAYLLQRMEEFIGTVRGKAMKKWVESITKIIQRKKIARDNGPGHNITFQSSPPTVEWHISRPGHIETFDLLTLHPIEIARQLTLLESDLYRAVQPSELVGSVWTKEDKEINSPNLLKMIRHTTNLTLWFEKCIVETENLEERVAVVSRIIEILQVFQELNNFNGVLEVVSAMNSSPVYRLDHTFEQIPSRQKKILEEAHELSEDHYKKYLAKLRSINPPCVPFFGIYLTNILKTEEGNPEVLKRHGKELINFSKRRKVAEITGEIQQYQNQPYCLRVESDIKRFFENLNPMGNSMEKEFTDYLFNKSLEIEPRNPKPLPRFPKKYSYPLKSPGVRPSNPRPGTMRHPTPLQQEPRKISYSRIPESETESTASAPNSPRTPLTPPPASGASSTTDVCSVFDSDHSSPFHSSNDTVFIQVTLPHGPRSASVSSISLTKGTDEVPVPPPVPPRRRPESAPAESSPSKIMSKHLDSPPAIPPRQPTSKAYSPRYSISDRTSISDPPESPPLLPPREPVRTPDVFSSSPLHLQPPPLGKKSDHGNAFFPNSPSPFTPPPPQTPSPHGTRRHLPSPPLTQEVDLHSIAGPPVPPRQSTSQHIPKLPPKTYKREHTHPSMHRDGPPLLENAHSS

Row | IC50 | Structure (SMILES)
1 | 100 to 500 nM | Cc1c([C@@H](C)Nc2ccnc3cnc(C4(O)CCC(O)CC4)cc23)cccc1C(F)(F)F (single isomer, unassigned) [Compound B-84-P1]
2 | 100 to 500 nM | Cc1c([C@@H](C)Nc2ccnc3cnc(C4(O)CCC(O)CC4)cc23)cccc1C(F)(F)F (single isomer, unassigned) [Compound B-84-P2]
3 | 100 to 500 nM | Cc1c(C(F)F)cccc1[C@@H](C)Nc1ccnc2cnc(C3(O)CCC(O)CC3)cc12 (single isomer, unassigned) [Compound B-86-P1]
4 | 100 to 500 nM | Cc1c(C(F)F)cccc1[C@@H](C)Nc1ccnc2cnc(C3(O)CCC(O)CC3)cc12 (single isomer, unassigned) [Compound B-86-P2]
5 | ≤ 100 nM | Cc1cc(N[C@H](C)c2cccc(C(F)F)c2F)c2cc(C3(O)CCC(O)CC3)ncc2n1 (single isomer, unassigned) [Compound B-88-P1]
6 | ≤ 100 nM | C[C@@H](Nc1ccnc2cnc(C3(O)CCC(N(C)C)CC3)cc12)c1cccc(C(F)F)c1F (single isomer, unassigned) [Compound B-94-P1]
7 | ≤ 100 nM | C[C@@H](Nc1ccnc2cnc(C3(O)CCC(N4CCNCC4)CC3)cc12)c1cccc(C(F)F)c1F (single isomer, unassigned) [Compound B-97-P1]
8 | ≤ 100 nM | C[C@@H](Nc1ccnc2cnc(N3CCN(CCO)CC3)cc12)c1cccc(C(F)F)c1F [Compound B-43]
9 | ≤ 100 nM | CNC(=O)C1CCN(c2cc3c(N[C@H](C)c4cccc(C(F)F)c4F)ccnc3cn2)C(=O)C1 (stereo partly drawn) [Compound B-55]
10 | 100 to 500 nM | C[C@@H](Nc1ccnc2cnc(N3CC(O)CC3=O)cc12)c1cccc(C(F)F)c1F (stereo partly drawn) [Compound B-57]
11 | ≤ 100 nM | C[C@@H](Nc1ccnc2cnc(N3CCC(O)C3=O)cc12)c1cccc(C(F)F)c1F (stereo partly drawn) [Compound B-58]
12 | ≤ 100 nM | C[C@@H](Nc1ccnc2cnc(N3CCCC3=O)cc12)c1cccc(C(F)F)c1F [Compound B-59]
13 | ≤ 100 nM | C[C@@H](Nc1ccnc2cnc(N3CCC(N(C)C)CC3)cc12)c1cccc(C(F)F)c1F [Compound B-61]
14 | ≤ 100 nM | CC(=O)C1CCN(c2cc3c(N[C@H](C)c4cccc(C(F)F)c4F)ccnc3c(C)n2)CC1 [Compound B-66]
15 | ≤ 100 nM | C[C@@H](Nc1ccnc2cnc(N3C[C@@H](O)C[C@H]3CO)cc12)c1cccc(C(F)F)c1F [Compound B-77]
16 | ≤ 100 nM | COC(=O)C1CCC(O)(c2cc3c(N[C@H](C)c4cccc(C(F)F)c4F)ccnc3cn2)CC1 (stereo partly drawn) [Compound B-99]
17 | ≤ 100 nM | C[C@@H](Nc1ccnc2cnc(C(C)(C)O)cc12)c1cccc(C(F)F)c1F [Compound B-105]
18 | ≤ 100 nM | C[C@@H](Nc1ccnc2cnc(C(C)(O)C3CC3)cc12)c1cccc(C(F)F)c1F (stereo partly drawn) [Compound B-106]

Continued, molecule first:

Row | Structure (SMILES) | IC50
19 | COc1cc2nccc(N[C@H](C)c3cccc(C(F)F)c3F)c2cc1OC [Compound A-1] | ≤ 100 nM
20 | COc1cc2nc(C)cc(N[C@H](C)c3cccc(C(F)F)c3F)c2cc1OC [Compound A-2] | ≤ 100 nM
21 | COc1cc2nccc(N[C@H](C)c3cccc(C(F)F)c3F)c2cc1O[C@H]1CCOC1 [Compound A-3] | ≤ 100 nM
22 | COc1cc2nccc(N[C@H](C)c3cccc(C#N)c3C)c2cc1O[C@H]1CCOC1 [Compound A-4] | 100 to 500 nM
23 | COc1cc2nccc(N[C@H](C)c3cccc(C(F)F)c3F)c2cc1O[C@H]1CCNC1 [Compound A-5] | ≤ 100 nM
24 | COc1cc2nccc(N[C@H](C)c3cccc(C(F)F)c3F)c2cc1O[C@H]1CCN(C(C)=O)C1 [Compound A-6] | ≤ 100 nM
25 | COc1cc2nccc(N[C@H](C)c3cccc(C(F)F)c3F)c2cc1O[C@@H]1CCN(C(C)=O)C1 [Compound A-7] | 100 to 500 nM
26 | COc1cc2c(N[C@H](C)c3cccc(C(F)F)c3F)ccnc2cc1OC1CCN(C(C)=O)CC1 [Compound A-16] | ≤ 100 nM
27 | COc1cc2nccc(N[C@H](C)c3cccc(C(F)F)c3F)c2cc1OC1CCNCC1 [Compound A-17] | ≤ 100 nM
28 | COc1cc2nccc(N[C@H](C)c3cccc(C(F)F)c3F)c2cc1OC1CCN(C(C)=O)CC1 [Compound A-18] | ≤ 100 nM
29 | COc1cc2nccc(N[C@H](C)c3cccc(C(F)F)c3F)c2cc1C1=CCN(C(C)=O)CC1 [Compound A-39] | ≤ 100 nM
30 | COc1cc2nccc(N[C@H](C)c3cccc(C(F)F)c3F)c2cc1C1CCN(C(C)=O)CC1 [Compound A-40] | ≤ 100 nM
31 | COc1cc2nccc(N[C@H](C)c3cccc(C(F)F)c3F)c2cc1C1CCN(S(C)(=O)=O)CC1 [Compound A-41] | ≤ 100 nM
32 | COc1cc2nccc(N[C@H](C)c3cccc(C(F)F)c3F)c2cc1C1=CCS(=O)(=O)CC1 [Compound A-45] | ≤ 100 nM
33 | COc1cc2nccc(N[C@H](C)c3cccc(C(F)F)c3F)c2cc1C1CCS(=O)(=O)CC1 [Compound A-46] | ≤ 100 nM
34 | COc1cc2nccc(N[C@H](C)c3cccc(C(F)F)c3F)c2cc1C1(O)CCN(C(C)=O)CC1 [Compound A-58] | ≤ 100 nM
35 | COc1cc2nccc(N[C@H](C)c3cccc(C(F)F)c3F)c2cc1C1(OC)CCN(C(C)=O)CC1 [Compound A-59] | ≤ 100 nM

What follows are molecules tested on p-ERK of PC-9 cells (assay: p-ERK HTRF assay in PC-9 cells). Conditions: Homo sapiens, PC-9, 1 h, PC-9 lung cancer cells, 1 hour treatment, read-out: IC50, inhibitory activity on p-ERK of PC-9 cells.
Format: cell-based
Protocol: IC50 Values of Compounds Determined by p-ERK HTRF Assay in PC-9 Cells
Experimental objective: an inhibitory effect of the test compounds on the phosphorylation of PC-9ERK of lung cancer cells at a cellular level was evaluated by detecting the phosphorylation of ERK.
• PRMI 1640 medium (Invitrogen-11875093) • 0.25% pancreatin (Invitrogen-25200056) • Phosphoric acid buffer salt solution (PBS, pH 7.4) (Invitrogen-10010023) • Double-antibody (PS) (Invitrogen-15140122) • Fetal bovine serum (FBS) (Gibco-10091148) • Trypan blue (Gibco-15250061) • 10-cm culture dish (Corning-430167) • 10-mL pipette (Costar-4488) • Pipettor (Sartorius-17009031) • 15-mL centrifuge tube (Corning-430052) • 50-mL centrifuge tube (Corning-430829) • Cryotube (Thermo-377267) • 1.5-mL EP tube (Axygen-MCT-150-C-S) • Cell incubator (Thermo-371) • Microscope (Olympus-CKX41) • Centrifuge (Flying Pigeon-TDL-80-2B) • Cell counter (Countstar-IC-1000) • Envision (Perkin Elmer) • Spark 10M (TECAN) • Phospho-ERK1/2 (Thr202/Tyr204) Experimental kit (Cisbio, Cat. No. 64AERPEG) • PC-9 cells: RPMI1640+10% FBS+1% PS
• 1) PBS, 0.25% pancreatin, and a cell culture medium were placed in a water-bath kettle at 37° C. for preheating; • 2) cells were observed under a microscope, a fusion degree was evaluated, and no bacterial and fungi pollution was confirmed; • 3) a culture solution was removed, the cells were washed with 5 mL of PBS and digested with 2 mL of the 0.25% trypsin, the digestion was terminated with 10 mL of the fresh cell culture medium, a culture dish was rinsed, and the cells were transferred to a 15-mL centrifuge tube; • 4) the collected cells were centrifuged at 1,000 rpm for 5 minutes; • 5) after the centrifugation, the supernatant was discarded, the cells were resuspended in 5 mL of the cell culture medium, 20 μL of the resuspended cells were aspirated, and the number and viability of viable cells were recorded; • 6) the cell culture medium was used and the cell density was adjusted (PC-9:10,000 cells/well, and 45 μL per well); • 7) in a 384-well plate, 45 μL of a cell suspension per well was transferred according to an experimental design figure; and • 8) the cells were incubated overnight at 37° C. and 5% CO2.
• 1) The compounds were diluted from the stock concentration to 10 mM with 100% DMSO (Trametinib was diluted to 1 mM), then 3-fold diluted into 10 points (5 μL of the diluted compounds with the concentration of 10 mM were transferred to 10 μL of the DMSO in an LDV plate), and centrifuged at 1,000 rpm/min for 1 minute; • 2) 5 μL of the diluted compounds of step 1) were transferred to an inter plate 1 containing 45 μL of the cell culture medium (the compounds were diluted from 1,000× to 100×); • 3) 5 μL of the diluted compounds of step 2) were transferred to an inter plate 2 containing 45 μL of the cell culture medium (the compounds were diluted from 100× to 10×); • 4) 5 μL of the compounds were pipetted from the inter plate 2 into a cell culture plate (the compounds were diluted from 10 folds to 1 fold), the final concentrations of the test compounds were 10,000 nM, 3333.33 nM, 1111.11 nM, 370.37 nM, 123.46 nM, 41.15 nM, 13.72 nM, 4.57 nM, 1.52 nM, and […], the solution was centrifuged at 1,000 rpm/min for 1 minute, and the final content of the DMSO was 0.1%; and • 5) the cells were treated in an incubator at 37° C. for 1 hour. […]

Row | IC50 | Structure (SMILES)
36 | ≤ 300 nM | C[C@@H](Nc1ccnc2cnc(N3CCN(C(=O)C4CC4)CC3)cc12)c1cccc(C(F)F)c1F [Compound B-25]
37 | ≤ 300 nM | C[C@@H](Nc1ccnc2cnc(N3CCN(C(=O)C4COC4)CC3)cc12)c1cccc(C(F)F)c1F [Compound B-26]
38 | ≤ 300 nM | C[C@@H](Nc1ccnc2cnc(N3CCN(C(=O)C4CCOCC4)CC3)cc12)c1cccc(C(F)F)c1F [Compound B-27]
39 | 300 to 1000 nM | C[C@@H](Nc1ccnc2cnc(N3CCn4nccc4C3)cc12)c1cccc(C(F)F)c1F [Compound B-28]
